The results in this text go back to ChEMBL document CHEMBL1201862, “PubChem BioAssay data set” (2004).

Assay [1] concerns the target Voltage-gated inwardly rectifying potassium channel KCNH2 (Homo sapiens, UniProt Q12809). Conditions: Potency.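 Further: confirmatory quantitative high-throughput screen measuring inhibition of hERG channel activity.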
The target in assay [2] is T1, Cytochrome P450 1A2 (Homo sapiens, UniProt P05177).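 Further: PubChem cytochrome P450 panel assay, CYP1A2 panel member.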
T1 sequence (P05177 whole entry): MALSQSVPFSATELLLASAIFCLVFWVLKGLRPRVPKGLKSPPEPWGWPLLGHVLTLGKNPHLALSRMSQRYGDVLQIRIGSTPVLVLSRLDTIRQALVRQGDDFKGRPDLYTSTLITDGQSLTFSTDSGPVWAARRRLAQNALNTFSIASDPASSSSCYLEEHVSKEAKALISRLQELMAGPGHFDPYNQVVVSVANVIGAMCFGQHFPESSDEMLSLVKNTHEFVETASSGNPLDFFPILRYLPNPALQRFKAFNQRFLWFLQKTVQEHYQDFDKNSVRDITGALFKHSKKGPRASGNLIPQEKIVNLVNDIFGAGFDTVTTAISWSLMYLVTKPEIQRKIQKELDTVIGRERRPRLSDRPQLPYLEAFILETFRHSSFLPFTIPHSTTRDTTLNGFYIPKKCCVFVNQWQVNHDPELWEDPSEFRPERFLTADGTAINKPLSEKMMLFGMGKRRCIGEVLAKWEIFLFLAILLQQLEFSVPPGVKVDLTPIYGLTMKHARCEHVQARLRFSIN

The target of assay [3] is T2, CAAX prenyl protease 2 (Saccharomyces cerevisiae S288c, UniProt Q03530).
T2 sequence (Q03530 whole entry): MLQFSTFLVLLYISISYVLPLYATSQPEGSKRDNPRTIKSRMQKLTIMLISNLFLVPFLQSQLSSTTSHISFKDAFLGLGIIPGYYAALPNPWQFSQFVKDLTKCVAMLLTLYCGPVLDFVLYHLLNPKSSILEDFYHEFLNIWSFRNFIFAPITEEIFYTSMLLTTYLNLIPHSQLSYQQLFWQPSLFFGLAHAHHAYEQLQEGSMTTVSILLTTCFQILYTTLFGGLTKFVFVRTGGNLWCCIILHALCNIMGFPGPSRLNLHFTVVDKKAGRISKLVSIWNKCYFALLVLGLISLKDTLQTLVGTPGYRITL
The assay is classed as biochemical.

The target in assay [4] is Trypsin (Sus scrofa, UniProt P00761). Put plainly: trypsin protease activity blockade – biochemical, quenched peptide fluorescence, cherry-pick, selectivity assay for Rce1 protease inhibitor project, dose response (AID 488789).
Assay [5] concerns the target T3, CAAX prenyl protease 2 (Homo sapiens, UniProt Q9Y256).
T3 sequence (Q9Y256 whole entry): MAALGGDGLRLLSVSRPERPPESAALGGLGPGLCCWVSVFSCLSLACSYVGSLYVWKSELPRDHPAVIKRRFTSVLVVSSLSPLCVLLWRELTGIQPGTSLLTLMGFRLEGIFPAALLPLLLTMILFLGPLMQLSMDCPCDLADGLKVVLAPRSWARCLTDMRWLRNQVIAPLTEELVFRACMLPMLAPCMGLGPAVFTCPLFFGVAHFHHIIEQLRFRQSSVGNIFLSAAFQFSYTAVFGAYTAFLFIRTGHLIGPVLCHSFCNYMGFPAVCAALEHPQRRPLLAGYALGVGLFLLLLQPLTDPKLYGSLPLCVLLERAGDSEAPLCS
Put plainly: inhibition of Ras-converting CAAX protease Rce1 – biochemical, yeast membranes, quenched-peptide fluorescence, cherry-pick, dose response (AID 588849).

The target in assay [6] is Mu-type opioid receptor (Homo sapiens, UniProt P35372). The assay is classed as functional, cell-based.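 Further: U2OS cells with beta-arrestin recruitment to OPRM1 by beta-gal complementation.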
Assay [7] addresses 5-hydroxytryptamine receptor 2A (Mus musculus, UniProt P35363). The assay is classed as functional, cell-based.
In assay [8] the target is T4, Nuclear receptor subfamily 0 group B member 1 (Homo sapiens, UniProt P51843).
T4 sequence (P51843 whole entry): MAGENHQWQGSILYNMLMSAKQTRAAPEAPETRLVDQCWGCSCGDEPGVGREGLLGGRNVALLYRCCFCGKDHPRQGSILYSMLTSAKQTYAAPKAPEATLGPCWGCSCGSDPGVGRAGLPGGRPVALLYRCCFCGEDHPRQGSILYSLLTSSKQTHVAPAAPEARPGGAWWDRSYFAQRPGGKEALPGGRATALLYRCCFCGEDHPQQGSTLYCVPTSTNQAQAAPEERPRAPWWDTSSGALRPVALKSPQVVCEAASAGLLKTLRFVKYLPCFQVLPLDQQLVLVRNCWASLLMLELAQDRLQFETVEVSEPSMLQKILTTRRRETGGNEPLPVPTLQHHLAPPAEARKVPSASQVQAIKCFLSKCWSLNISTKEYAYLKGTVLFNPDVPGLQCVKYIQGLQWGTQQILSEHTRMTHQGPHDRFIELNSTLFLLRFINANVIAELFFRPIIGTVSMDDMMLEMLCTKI
Put plainly: Luminescence-based cell-based high throughput dose response assay for inhibitors of the orphan nuclear receptor subfamily 0, group B, member 1 (DAX1; NR0B1). [Related pubchem assays (depositor defined):AID504766, AID504790]. The assay is classed as functional.

Assay [9] has as its system HEK293. Put plainly: cells. The format is functional, cell-based. Particulars: Homo sapiens.
Assay [10] deals with T5, Caspase-3 (Homo sapiens, UniProt P42574).
T5 sequence (P42574 whole entry): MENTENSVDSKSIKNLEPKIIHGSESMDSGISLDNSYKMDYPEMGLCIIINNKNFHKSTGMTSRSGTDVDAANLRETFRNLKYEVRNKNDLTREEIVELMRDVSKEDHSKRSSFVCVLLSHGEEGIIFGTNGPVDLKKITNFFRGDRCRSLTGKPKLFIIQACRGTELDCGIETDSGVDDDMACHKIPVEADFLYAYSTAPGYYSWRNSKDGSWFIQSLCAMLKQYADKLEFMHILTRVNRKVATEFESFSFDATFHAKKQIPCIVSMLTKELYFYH
The assay is classed as functional.

Assay [11] deals with T6, Sentrin-specific protease 7 (Homo sapiens, UniProt Q9BQF6).
T6 sequence (Q9BQF6 whole entry): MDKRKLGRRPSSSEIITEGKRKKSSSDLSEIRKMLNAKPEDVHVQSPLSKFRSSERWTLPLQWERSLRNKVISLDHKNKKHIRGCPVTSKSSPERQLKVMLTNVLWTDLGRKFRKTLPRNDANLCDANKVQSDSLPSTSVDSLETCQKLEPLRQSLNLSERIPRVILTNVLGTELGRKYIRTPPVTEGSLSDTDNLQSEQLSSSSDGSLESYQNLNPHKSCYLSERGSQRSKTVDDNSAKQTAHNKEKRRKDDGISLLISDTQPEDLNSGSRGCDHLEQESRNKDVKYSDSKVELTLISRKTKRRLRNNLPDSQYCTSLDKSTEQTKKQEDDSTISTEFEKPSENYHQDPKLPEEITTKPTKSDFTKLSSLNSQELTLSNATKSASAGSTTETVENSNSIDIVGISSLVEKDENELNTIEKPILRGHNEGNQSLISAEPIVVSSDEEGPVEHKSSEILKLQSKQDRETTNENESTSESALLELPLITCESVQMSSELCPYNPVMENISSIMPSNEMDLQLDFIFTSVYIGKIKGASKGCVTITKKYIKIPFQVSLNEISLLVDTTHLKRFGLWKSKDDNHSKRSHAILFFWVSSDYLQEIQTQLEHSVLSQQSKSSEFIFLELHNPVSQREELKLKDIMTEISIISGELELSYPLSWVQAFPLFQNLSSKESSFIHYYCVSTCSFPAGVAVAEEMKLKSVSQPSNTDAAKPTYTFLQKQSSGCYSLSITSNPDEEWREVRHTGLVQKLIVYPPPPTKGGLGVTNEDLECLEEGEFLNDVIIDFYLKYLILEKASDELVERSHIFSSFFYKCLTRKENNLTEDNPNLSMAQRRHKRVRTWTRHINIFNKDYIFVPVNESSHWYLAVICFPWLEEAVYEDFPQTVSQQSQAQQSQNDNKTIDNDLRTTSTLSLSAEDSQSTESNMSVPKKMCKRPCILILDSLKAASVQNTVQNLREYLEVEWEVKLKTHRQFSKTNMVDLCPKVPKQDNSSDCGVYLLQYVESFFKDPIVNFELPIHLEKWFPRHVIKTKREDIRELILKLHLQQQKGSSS
The assay is classed as functional.

Assay [12] has as its target T7, Sentrin-specific protease 6 (Homo sapiens, UniProt Q9GZR1).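 Further: Luminescence-based dose-response confirmatory assay of SENP6 inhibition, following up an ultra-high-throughput screen.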
T7 sequence (Q9GZR1 whole entry): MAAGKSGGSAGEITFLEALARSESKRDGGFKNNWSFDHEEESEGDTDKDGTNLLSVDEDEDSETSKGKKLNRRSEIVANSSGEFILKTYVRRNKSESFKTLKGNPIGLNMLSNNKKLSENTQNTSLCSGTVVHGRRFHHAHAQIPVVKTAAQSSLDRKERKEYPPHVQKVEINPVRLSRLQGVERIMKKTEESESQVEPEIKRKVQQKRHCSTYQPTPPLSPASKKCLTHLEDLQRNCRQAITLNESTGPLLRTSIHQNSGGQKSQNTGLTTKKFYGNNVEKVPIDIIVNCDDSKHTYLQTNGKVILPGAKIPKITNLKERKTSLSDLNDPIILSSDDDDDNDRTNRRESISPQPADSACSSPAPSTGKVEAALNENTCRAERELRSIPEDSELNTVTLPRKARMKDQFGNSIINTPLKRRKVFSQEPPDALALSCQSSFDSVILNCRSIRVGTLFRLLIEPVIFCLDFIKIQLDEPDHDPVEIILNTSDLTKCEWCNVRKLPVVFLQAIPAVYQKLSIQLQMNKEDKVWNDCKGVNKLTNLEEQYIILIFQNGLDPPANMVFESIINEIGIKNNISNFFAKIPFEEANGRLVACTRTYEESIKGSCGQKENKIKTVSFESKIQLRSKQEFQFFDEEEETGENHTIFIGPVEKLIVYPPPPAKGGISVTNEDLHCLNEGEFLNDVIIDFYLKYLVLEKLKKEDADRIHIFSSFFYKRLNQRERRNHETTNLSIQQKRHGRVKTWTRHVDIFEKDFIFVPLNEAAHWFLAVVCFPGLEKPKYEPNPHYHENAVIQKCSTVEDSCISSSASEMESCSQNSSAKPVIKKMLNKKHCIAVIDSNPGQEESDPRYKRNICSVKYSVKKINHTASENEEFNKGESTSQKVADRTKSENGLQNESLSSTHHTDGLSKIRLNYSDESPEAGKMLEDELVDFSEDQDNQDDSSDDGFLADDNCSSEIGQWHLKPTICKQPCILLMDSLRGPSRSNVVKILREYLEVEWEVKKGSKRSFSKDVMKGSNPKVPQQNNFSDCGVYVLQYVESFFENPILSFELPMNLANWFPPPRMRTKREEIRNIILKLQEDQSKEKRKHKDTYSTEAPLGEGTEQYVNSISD
The assay is classed as functional.

Assay [13] has as its target T8, Sentrin-specific protease 8 (Homo sapiens, UniProt Q96LD8).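 Further: luminescence read-out of SENP8 inhibition, dose-response confirmation following an ultra-high-throughput screen.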
T8 sequence (Q96LD8 whole entry): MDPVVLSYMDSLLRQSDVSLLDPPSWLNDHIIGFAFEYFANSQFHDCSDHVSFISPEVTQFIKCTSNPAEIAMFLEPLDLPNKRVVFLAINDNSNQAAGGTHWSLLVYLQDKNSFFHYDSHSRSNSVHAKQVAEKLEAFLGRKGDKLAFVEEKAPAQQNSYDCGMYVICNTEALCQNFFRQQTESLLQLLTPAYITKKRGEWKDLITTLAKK
The format is functional.

In assay [14] the target is Cytochrome P450 3A4 (Homo sapiens, UniProt P08684).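 Further: CYP3A4 tested as one member of a cytochrome P450 panel screen.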

Several values for one entry are separate records, joined by “and”; a condition that tells them apart may be missing. Identical values can stand only once. Activity calls are given as the source filed them. Some results are limits rather than exact numbers.

Voltage-gated inwardly rectifying potassium channel KCNH2, sequence (Q12809 whole entry): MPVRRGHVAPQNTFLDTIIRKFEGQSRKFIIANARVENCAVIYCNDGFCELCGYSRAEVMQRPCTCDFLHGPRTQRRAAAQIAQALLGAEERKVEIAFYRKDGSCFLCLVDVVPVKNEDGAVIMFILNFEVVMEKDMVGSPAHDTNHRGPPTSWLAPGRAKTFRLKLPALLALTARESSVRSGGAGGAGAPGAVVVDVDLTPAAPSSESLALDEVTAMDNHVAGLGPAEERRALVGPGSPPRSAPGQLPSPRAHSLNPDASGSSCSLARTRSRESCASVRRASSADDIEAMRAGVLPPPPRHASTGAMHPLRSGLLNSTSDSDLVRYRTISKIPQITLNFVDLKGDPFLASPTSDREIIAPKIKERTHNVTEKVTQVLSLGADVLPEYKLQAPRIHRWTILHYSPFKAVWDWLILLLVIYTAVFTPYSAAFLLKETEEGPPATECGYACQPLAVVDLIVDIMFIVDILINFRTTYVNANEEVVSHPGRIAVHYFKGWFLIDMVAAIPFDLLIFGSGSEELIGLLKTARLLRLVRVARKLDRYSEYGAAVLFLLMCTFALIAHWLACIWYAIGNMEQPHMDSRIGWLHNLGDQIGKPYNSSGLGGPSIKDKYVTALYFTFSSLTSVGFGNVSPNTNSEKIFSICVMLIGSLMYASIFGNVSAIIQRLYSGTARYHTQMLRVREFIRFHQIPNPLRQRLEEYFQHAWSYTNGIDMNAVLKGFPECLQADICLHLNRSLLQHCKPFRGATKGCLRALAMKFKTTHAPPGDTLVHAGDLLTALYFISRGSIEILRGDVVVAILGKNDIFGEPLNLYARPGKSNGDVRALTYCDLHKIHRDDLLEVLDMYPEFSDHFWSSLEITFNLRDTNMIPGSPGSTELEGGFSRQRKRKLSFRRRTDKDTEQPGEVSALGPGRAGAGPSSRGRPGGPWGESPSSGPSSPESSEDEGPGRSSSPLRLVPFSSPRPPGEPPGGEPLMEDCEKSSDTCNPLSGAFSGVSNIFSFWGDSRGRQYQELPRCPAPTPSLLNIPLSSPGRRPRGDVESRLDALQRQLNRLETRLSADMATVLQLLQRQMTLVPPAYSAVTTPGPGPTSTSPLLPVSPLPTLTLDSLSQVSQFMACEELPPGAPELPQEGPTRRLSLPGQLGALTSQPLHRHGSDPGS
Mu-type opioid receptor, sequence (P35372 whole entry): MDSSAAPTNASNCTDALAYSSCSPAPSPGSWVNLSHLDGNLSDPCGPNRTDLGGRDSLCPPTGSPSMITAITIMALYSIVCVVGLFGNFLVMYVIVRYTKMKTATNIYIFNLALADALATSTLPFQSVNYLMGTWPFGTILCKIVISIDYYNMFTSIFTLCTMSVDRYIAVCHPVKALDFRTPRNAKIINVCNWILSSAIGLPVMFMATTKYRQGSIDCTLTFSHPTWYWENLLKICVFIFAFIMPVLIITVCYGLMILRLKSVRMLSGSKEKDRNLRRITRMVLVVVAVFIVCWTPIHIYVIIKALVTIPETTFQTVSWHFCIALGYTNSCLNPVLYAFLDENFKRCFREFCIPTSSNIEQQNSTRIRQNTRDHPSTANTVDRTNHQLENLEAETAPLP
Trypsin, sequence (P00761 whole entry): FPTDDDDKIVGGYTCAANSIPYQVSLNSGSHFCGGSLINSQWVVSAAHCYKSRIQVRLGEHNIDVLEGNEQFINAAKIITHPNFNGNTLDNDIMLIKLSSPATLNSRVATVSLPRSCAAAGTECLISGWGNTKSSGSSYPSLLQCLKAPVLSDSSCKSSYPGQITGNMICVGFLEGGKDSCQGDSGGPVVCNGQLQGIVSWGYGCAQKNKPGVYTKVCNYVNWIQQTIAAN
Cytochrome P450 3A4, sequence (P08684 whole entry): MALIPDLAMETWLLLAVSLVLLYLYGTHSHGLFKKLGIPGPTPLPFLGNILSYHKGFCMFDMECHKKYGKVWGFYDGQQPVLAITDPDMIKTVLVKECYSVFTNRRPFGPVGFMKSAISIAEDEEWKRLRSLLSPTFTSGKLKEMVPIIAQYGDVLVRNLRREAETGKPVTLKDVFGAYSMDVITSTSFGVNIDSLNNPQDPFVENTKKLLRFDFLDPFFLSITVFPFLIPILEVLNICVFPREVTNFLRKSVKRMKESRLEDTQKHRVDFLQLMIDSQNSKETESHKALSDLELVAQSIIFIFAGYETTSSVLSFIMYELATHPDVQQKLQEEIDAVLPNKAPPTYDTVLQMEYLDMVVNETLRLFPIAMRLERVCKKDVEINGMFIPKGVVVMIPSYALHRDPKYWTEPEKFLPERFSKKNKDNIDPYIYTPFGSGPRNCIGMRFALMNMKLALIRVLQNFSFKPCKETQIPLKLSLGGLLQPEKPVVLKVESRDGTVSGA
5-hydroxytryptamine receptor 2A, sequence (P35363 whole entry): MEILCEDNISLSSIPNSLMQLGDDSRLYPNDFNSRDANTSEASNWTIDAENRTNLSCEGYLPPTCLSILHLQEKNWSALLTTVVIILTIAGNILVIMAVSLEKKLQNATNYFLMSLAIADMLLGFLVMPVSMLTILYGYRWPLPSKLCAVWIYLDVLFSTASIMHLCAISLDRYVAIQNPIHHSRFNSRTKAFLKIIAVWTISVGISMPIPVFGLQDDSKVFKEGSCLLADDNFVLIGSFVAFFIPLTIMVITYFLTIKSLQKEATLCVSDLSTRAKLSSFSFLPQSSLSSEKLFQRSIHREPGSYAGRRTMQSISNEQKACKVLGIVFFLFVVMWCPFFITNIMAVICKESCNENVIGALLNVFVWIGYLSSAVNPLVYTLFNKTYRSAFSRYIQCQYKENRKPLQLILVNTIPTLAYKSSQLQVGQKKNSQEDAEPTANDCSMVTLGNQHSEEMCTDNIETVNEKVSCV

With `O=C(Nc1cc(C(=O)Nc2ccc(S(=O)(=O)O)cc2S(=O)(=O)O)cc(C(=O)Nc2ccc(S(=O)(=O)O)cc2S(=O)(=O)O)c1)Nc1cc(C(=O)Nc2ccc(S(=O)(=O)O)cc2S(=O)(=O)O)cc(C(=O)Nc2ccc(S(=O)(=O)O)cc2S(=O)(=O)O)c1`, the AC50 in [1] was 35.5 µM (inconclusive); in assay [2], 31.6 µM (inconclusive) and 39.8 µM (inconclusive).
As to `CC1(C(=O)N(CC(=O)NC2CCCC2)Cc2ccco2)CC(=O)N=C2C=CC=CN21` (stereo not drawn), the AC50 in assay [3] is 4.64 µM (active); in assay [4], 4.21 µM (active); in assay [5], 3.19 µM (active).
For the compound `CC1=NN=C(c2ccc(N)cc2)c2cc3c(cc2C1)OCO3`, the EC50 is 92.5 µM (inactive) in [6] and 76.1 µM (inactive) in assay [7]. In addition, in [1], the AC50 was 35.5 µM (inconclusive).
Consider `CCOC(=O)c1ccc2[nH]c3ccccc3c2c1`, for which the IC50 in assay [8] and in [9] was > 67.5 µM (inactive) each time.
On to `Cc1ccc(NC(=O)c2cccc3cccnc23)cc1`, for which the IC50 was 32.5 µM (active) in assay [10], 8.6 µM (active) in [11], 31.3 µM (active) in [12] and 24.3 µM (active) in assay [13].
As to `Cc1nc2cc(NC(=O)c3ccc(Br)s3)ccc2s1`, the IC50 in assay [10] was 19.7 µM (active); in assay [11], 4.08 µM (active); in assay [12], > 100 µM (inactive); in [13], > 100 µM (inactive).
For `C=CCOC(=O)C1=C(C)OC(N)=C(C#N)C1c1ccco1` (stereo not drawn), the IC50 in [8] and in assay [9] was > 67.5 µM (inactive) in each case.
On to `Cc1ccc(/N=C/c2c(O)oc3ccccc3c2=O)c(C)c1`, for which the IC50 was 95 µM (active) in [10], > 100 µM (inactive) in assay [11], > 100 µM (inactive) in assay [12] and > 100 µM (inactive) in assay [13].
On to `Nc1ncnc2c1ncn2C1C=C(CO)C(O)C1O` (stereo not drawn), for which the values for the IC50 in assay [8] and in [9] were > 67.7 µM (inactive) and > 2.51 µM (active), respectively.
On to `C[C@H](O)C(=O)C1=Nc2c(nc(N)[nH]c2=O)NC1` [SEPIAPTERIN], for which the AC50 is 316 nM (inconclusive) in assay [14] and 28.2 µM (inconclusive) in [1].
